This note sets out measurements from PubChem BioAssay (NCI).

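Compound exposure: 48 hours, 5 concentrations, 96-well plates. At the TGI there is no net growth.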

One assay concerns NCI-H460 lung. Briefly: NCI anticancer screen, dose series, 48 h.
`COC(=O)[C@@H]1[C@H](OC(C)=O)CCC2[C@@]3(C[C@@H](c4ccoc4)O[C@@H]3OC)[C@H](C)CC[C@]21C(=O)OC` (stereo partly specified) registered a TGI above 25 µM.

In turn, `CC(C)(C)OC(=O)NC(Cc1ccccc1)OCc1ccccc1` (stereo unspecified) yielded a TGI of 44.7 µM.

As to `COc1cc2c3c(c1)CCCN3CCC2`, the TGI is above 10 µM.

In the case of `Cc1ccc(NC(Nc2ccc(C)cc2C)=C(/C=C(\Cl)[N+](=O)[O-])[N+](=O)[O-])c(C)c1`, the TGI is 36.7 µM.

The molecule `CC1(/C=C/CCSc2ccccc2)CC(=O)C2CC1C2(C)C` (stereo unspecified) returned a TGI of 71.6 µM.

In turn, `COc1cc(/C=C/c2nc(NC(=S)Nc3ccccc3)nnc2C)cc(OC)c1OC` showed a TGI of 36.8 µM.

Turning to `CC1(C)C=Cc2c(cc(O)c3c(=O)c4cc(Cl)ccc4[nH]c23)O1`, the TGI is above 10 µM.

The molecule `CC(=O)c1ccc2c(c1)CC1(C2)Cc2cc3c(cc2C1=O)CCC3` (stereo unspecified) came in with a TGI of 76.3 µM.

Consider `CCc1nn(CN2CCOCC2)c(=S)n1/N=C/c1ccc(-c2ccc(Cl)cc2)o1`, for which the TGI is above 100 µM.

In turn, `COc1cc(C2SCC(=O)N2c2cccc(Cl)c2)cc(OC)c1OC` (stereo unspecified) displayed a TGI above 100 µM.

As to `CS(=O)(=O)OCC1CN(S(C)(=O)=O)c2cc(O)ccc21` (stereo unspecified), the TGI amounted to 10.5 µM.

Regarding `CCOC(=O)C1=NOC2(C=C(Br)C(=O)C(Br)=C2)C1`, the TGI was found to be 15 µM.

Turning to `Oc1ccc(-c2cc(-c3cc(-c4ccc(O)cc4)no3)on2)cc1`, the TGI is above 100 µM.

`O=c1[nH]cc(-c2c[nH]c3ccccc23)nc1-c1c[nH]c2ccccc12` registered a TGI of 43.4 µM.

`Nc1n[n+](CC(=O)c2ccccc2)c2sc(-c3ccccc3)nn12`: the TGI is above 100 µM.

In turn, `CCOC(=O)c1c(C)nc2c1c(CN(C)C)c(O)c1[nH]c(C)c(C)nc12` came in with a TGI of 61.1 µM.

With `Cc1cc(C)c(-n2[nH]c(=O)n(C)c2=O)c(C)c1`, the TGI is above 100 µM.

With `CC1=NC(=Cc2cccc(Cl)c2)C(=O)N1n1c(-c2ccccc2)nc2ccccc2c1=O`, the TGI was determined as 46.5 µM.

The next assay has as its system NCI-H522 lung. Briefly: NCI anticancer screen, dose series, 48 h.
Molecule `COC(=O)[C@@H]1[C@H](OC(C)=O)CCC2[C@@]3(C[C@@H](c4ccoc4)O[C@@H]3OC)[C@H](C)CC[C@]21C(=O)OC` (stereo partly specified) showed a TGI above 25 µM.

The molecule `CC(C)(C)OC(=O)NC(Cc1ccccc1)OCc1ccccc1` (stereo unspecified) displayed a TGI of 26.9 µM.

`COc1cc2c3c(c1)CCCN3CCC2` had a TGI above 10 µM.

Molecule `Cc1ccc(NC(Nc2ccc(C)cc2C)=C(/C=C(\Cl)[N+](=O)[O-])[N+](=O)[O-])c(C)c1` gave a TGI of 4.52 µM.

On to `CC1(/C=C/CCSc2ccccc2)CC(=O)C2CC1C2(C)C` (stereo unspecified), for which the TGI worked out at 52.3 µM.

In turn, `COc1cc(/C=C/c2nc(NC(=S)Nc3ccccc3)nnc2C)cc(OC)c1OC` registered a TGI of 28.4 µM.

With `CC1(C)C=Cc2c(cc(O)c3c(=O)c4cc(Cl)ccc4[nH]c23)O1`, the TGI came to 6.46 µM.

`CC(=O)c1ccc2c(c1)CC1(C2)Cc2cc3c(cc2C1=O)CCC3` (stereo unspecified) came in with a TGI of 83.6 µM.

Turning to `CCc1nn(CN2CCOCC2)c(=S)n1/N=C/c1ccc(-c2ccc(Cl)cc2)o1`, the TGI is above 100 µM.

Turning to `COc1cc(C2SCC(=O)N2c2cccc(Cl)c2)cc(OC)c1OC` (stereo unspecified), the TGI was above 100 µM.

Regarding `CS(=O)(=O)OCC1CN(S(C)(=O)=O)c2cc(O)ccc21` (stereo unspecified), the TGI was 2.94 µM.

On to `CCOC(=O)C1=NOC2(C=C(Br)C(=O)C(Br)=C2)C1`, for which the TGI stood at 1.34 µM.

`Oc1ccc(-c2cc(-c3cc(-c4ccc(O)cc4)no3)on2)cc1` had a TGI above 100 µM.

The molecule `O=c1[nH]cc(-c2c[nH]c3ccccc23)nc1-c1c[nH]c2ccccc12` had a TGI of 20.3 µM.

The molecule `Nc1n[n+](CC(=O)c2ccccc2)c2sc(-c3ccccc3)nn12` displayed a TGI above 100 µM.

With `CCOC(=O)c1c(C)nc2c1c(CN(C)C)c(O)c1[nH]c(C)c(C)nc12`, the TGI amounted to 42.7 µM.

In turn, `Cc1cc(C)c(-n2[nH]c(=O)n(C)c2=O)c(C)c1` came in with a TGI above 100 µM.

`CC1=NC(=Cc2cccc(Cl)c2)C(=O)N1n1c(-c2ccccc2)nc2ccccc2c1=O` returned a TGI of 67.7 µM.

The next assay has as its system OVCAR-8 ovarian. Briefly: NCI anticancer screen, dose series, 48 h.
With `COC(=O)[C@@H]1[C@H](OC(C)=O)CCC2[C@@]3(C[C@@H](c4ccoc4)O[C@@H]3OC)[C@H](C)CC[C@]21C(=O)OC` (stereo partly specified), the TGI was above 25 µM.

`CC(C)(C)OC(=O)NC(Cc1ccccc1)OCc1ccccc1` (stereo unspecified) came in with a TGI of 39.9 µM.

Take `COc1cc2c3c(c1)CCCN3CCC2`: the TGI was above 10 µM.

`Cc1ccc(NC(Nc2ccc(C)cc2C)=C(/C=C(\Cl)[N+](=O)[O-])[N+](=O)[O-])c(C)c1`: the TGI came to 7.86 µM.

The molecule `CC1(/C=C/CCSc2ccccc2)CC(=O)C2CC1C2(C)C` (stereo unspecified) returned a TGI above 100 µM.

The molecule `COc1cc(/C=C/c2nc(NC(=S)Nc3ccccc3)nnc2C)cc(OC)c1OC` registered a TGI above 100 µM.

Turning to `CC1(C)C=Cc2c(cc(O)c3c(=O)c4cc(Cl)ccc4[nH]c23)O1`, the TGI is above 10 µM.

In turn, `CC(=O)c1ccc2c(c1)CC1(C2)Cc2cc3c(cc2C1=O)CCC3` (stereo unspecified) came in with a TGI of 36.1 µM.

For `CCc1nn(CN2CCOCC2)c(=S)n1/N=C/c1ccc(-c2ccc(Cl)cc2)o1`, the TGI is above 100 µM.

For the molecule `COc1cc(C2SCC(=O)N2c2cccc(Cl)c2)cc(OC)c1OC` (stereo unspecified), the TGI is above 100 µM.

Regarding `CS(=O)(=O)OCC1CN(S(C)(=O)=O)c2cc(O)ccc21` (stereo unspecified), the TGI was 11.5 µM.

With `CCOC(=O)C1=NOC2(C=C(Br)C(=O)C(Br)=C2)C1`, the TGI stood at 5.3 µM.

On to `Oc1ccc(-c2cc(-c3cc(-c4ccc(O)cc4)no3)on2)cc1`, for which the TGI was above 100 µM.

Molecule `O=c1[nH]cc(-c2c[nH]c3ccccc23)nc1-c1c[nH]c2ccccc12` gave a TGI of 25.7 µM.

`Nc1n[n+](CC(=O)c2ccccc2)c2sc(-c3ccccc3)nn12`: the TGI is above 100 µM.

On to `CCOC(=O)c1c(C)nc2c1c(CN(C)C)c(O)c1[nH]c(C)c(C)nc12`, for which the TGI was 60.4 µM.

As to `Cc1cc(C)c(-n2[nH]c(=O)n(C)c2=O)c(C)c1`, the TGI was above 100 µM.

Turning to `CC1=NC(=Cc2cccc(Cl)c2)C(=O)N1n1c(-c2ccccc2)nc2ccccc2c1=O`, the TGI was above 100 µM.

For another assay, the system named is PC-3 prostate. Kind of assay: NCI anticancer screen, dose series, 48 h.
`COC(=O)[C@@H]1[C@H](OC(C)=O)CCC2[C@@]3(C[C@@H](c4ccoc4)O[C@@H]3OC)[C@H](C)CC[C@]21C(=O)OC` (stereo partly specified) registered a TGI above 25 µM.

Molecule `CC(C)(C)OC(=O)NC(Cc1ccccc1)OCc1ccccc1` (stereo unspecified) yielded a TGI of 26.7 µM.

`COc1cc2c3c(c1)CCCN3CCC2` returned a TGI above 10 µM.

Take `Cc1ccc(NC(Nc2ccc(C)cc2C)=C(/C=C(\Cl)[N+](=O)[O-])[N+](=O)[O-])c(C)c1`: the TGI stood at 17.2 µM.

`CC1(/C=C/CCSc2ccccc2)CC(=O)C2CC1C2(C)C` (stereo unspecified) registered a TGI above 100 µM.

On to `COc1cc(/C=C/c2nc(NC(=S)Nc3ccccc3)nnc2C)cc(OC)c1OC`, for which the TGI was above 100 µM.

On to `CC1(C)C=Cc2c(cc(O)c3c(=O)c4cc(Cl)ccc4[nH]c23)O1`, for which the TGI came out at 7.12 µM.

For the molecule `CC(=O)c1ccc2c(c1)CC1(C2)Cc2cc3c(cc2C1=O)CCC3` (stereo unspecified), the TGI is 72.2 µM.

`CCc1nn(CN2CCOCC2)c(=S)n1/N=C/c1ccc(-c2ccc(Cl)cc2)o1` returned a TGI above 100 µM.

`COc1cc(C2SCC(=O)N2c2cccc(Cl)c2)cc(OC)c1OC` (stereo unspecified) gave a TGI above 100 µM.

The molecule `CS(=O)(=O)OCC1CN(S(C)(=O)=O)c2cc(O)ccc21` (stereo unspecified) yielded a TGI of 5.62 µM.

Regarding `CCOC(=O)C1=NOC2(C=C(Br)C(=O)C(Br)=C2)C1`, the TGI was 5.31 µM.

`Oc1ccc(-c2cc(-c3cc(-c4ccc(O)cc4)no3)on2)cc1`: the TGI is above 100 µM.

In turn, `O=c1[nH]cc(-c2c[nH]c3ccccc23)nc1-c1c[nH]c2ccccc12` returned a TGI of 51.1 µM.

Molecule `Nc1n[n+](CC(=O)c2ccccc2)c2sc(-c3ccccc3)nn12` showed a TGI above 100 µM.

As to `CCOC(=O)c1c(C)nc2c1c(CN(C)C)c(O)c1[nH]c(C)c(C)nc12`, the TGI amounted to 54.5 µM.

The molecule `Cc1cc(C)c(-n2[nH]c(=O)n(C)c2=O)c(C)c1` registered a TGI above 100 µM.
